Measured values as given in patent publication US9321790B2, “Pyrimidinone derivatives as antimalarial agents” (SANOFI, priority 2012, dated 2016).

Tests used:
[1] = molecular target: human PI3Kα (Homo sapiens (Human), UniProt P42336); assay: Human PI3Kα activity test (luciferin/luciferase ATP consumption, KinaseGlo); assay type: biochemical; details: PI3Kα (p110α/p85α), 50 μM PIP2, 2 μM ATP, 90 minutes; read-out: IC50 Human PI3Kα
Description: The test uses a luciferin/luciferase system to measure the concentration of ATP and its consumption during the enzymatic reaction.
After 90 minutes, the reaction is quenched by adding 20 μl/well of KinaseGlo reagent (Promega V6713). After 10 minutes in the dark, the luminescence is read using a PHERAStar microplate reader (reading at 0.8 sec/well).

[2] = tested on: Plasmodium falciparum (strain NF54); assay: Antimalarial activity test: growth of Plasmodium falciparum in infected human erythrocytes, 3H-hypoxanthine incorporation; assay type: cell-based; details: Plasmodium falciparum, Erythrocyte, strain NF54 sensitive to chloroquine, 72 h total incubation
Procedure, shortened: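 Chloroquine-sensitive NF54 parasites in human erythrocytes (1.25% hematocrit, 0.15% parasitemia) were grown in hypoxanthine-free RPMI 1640 with HEPES and Albumax II, with compound in twofold serial dilution, at 37 °C under 93% N2/4% CO2/3% O2. After 48 h, 3H-hypoxanthine (0.5 μCi) was added for 24 h. Scintillation counts versus drug-free control gave IC50.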

human PI3Kα, sequence (P42336 whole entry): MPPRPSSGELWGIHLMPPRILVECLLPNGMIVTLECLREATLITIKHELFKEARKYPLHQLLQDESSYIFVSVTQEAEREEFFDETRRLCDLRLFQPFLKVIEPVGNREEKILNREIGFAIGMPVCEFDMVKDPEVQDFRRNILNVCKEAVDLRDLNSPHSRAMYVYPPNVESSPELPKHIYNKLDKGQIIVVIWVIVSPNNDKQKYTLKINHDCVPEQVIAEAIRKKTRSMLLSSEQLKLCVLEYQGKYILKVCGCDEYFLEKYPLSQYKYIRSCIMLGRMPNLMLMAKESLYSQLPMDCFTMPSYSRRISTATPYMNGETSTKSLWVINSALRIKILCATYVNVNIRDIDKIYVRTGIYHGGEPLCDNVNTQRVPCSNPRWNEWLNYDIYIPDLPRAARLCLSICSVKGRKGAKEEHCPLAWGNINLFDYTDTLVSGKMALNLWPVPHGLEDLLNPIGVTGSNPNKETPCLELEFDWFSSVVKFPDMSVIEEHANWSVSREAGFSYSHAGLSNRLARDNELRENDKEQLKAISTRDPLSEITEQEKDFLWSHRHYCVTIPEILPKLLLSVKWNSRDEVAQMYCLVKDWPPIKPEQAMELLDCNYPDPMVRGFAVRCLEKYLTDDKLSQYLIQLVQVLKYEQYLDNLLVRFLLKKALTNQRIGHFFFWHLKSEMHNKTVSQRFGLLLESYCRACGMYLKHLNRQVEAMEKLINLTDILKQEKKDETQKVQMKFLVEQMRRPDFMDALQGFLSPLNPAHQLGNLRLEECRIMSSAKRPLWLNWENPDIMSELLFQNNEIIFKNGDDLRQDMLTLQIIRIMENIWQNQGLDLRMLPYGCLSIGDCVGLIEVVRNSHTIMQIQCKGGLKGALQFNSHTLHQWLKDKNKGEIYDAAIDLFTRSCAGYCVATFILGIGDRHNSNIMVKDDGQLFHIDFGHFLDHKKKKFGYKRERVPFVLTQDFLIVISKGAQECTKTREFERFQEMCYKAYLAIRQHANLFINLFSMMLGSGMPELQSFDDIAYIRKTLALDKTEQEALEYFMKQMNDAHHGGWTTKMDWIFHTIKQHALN
human PI3Kα, sequence (P27986 whole entry partner): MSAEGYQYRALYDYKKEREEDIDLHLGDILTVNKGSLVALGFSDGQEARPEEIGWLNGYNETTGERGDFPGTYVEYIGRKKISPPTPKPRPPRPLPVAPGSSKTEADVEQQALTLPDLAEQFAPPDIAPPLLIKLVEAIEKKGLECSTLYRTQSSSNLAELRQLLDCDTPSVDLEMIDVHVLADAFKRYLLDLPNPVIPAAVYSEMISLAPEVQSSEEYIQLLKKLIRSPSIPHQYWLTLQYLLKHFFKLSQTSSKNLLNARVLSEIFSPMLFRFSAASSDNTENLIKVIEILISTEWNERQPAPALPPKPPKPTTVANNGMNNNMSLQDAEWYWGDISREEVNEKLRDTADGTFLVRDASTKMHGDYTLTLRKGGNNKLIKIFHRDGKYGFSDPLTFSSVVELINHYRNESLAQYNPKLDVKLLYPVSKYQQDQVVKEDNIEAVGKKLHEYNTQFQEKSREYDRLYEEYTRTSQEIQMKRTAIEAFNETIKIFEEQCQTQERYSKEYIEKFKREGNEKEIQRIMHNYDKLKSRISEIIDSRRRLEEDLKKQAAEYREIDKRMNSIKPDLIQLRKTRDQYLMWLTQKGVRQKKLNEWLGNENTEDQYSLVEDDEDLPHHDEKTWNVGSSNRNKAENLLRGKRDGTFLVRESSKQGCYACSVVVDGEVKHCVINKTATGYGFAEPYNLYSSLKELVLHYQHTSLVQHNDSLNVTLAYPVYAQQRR

Row | SMILES | IC50 [1] [µM] | IC50 [2] [nM]
1 | CCOc1ccc(C(=O)CN2c3nc(N4C[C@@H]5C[C@H]4CO5)cc(=O)n3CC[C@H]2C(F)(F)F)cn1 [Compound 35, (8S)-9-[2-(6-Ethoxypyrid-3-yl)-2-oxoethyl]-2-(1S,4S)-2-oxa-5-azabicyclo[2.2.1]hept-5-yl-8-trifluoromethyl-6,7,8,9-tetrahydropyrimido[1,2-a]pyrimidin-4-one] | > 10 | > 210
2 | CN(CCO)c1ccc(C(=O)CN2c3nc(N4C[C@@H]5C[C@H]4CO5)cc(=O)n3CC[C@H]2C(F)(F)F)cn1 [Compound 34, (8S)-9-(2-{6-[(2-Hydroxyethyl)methylamino]pyrid-3-yl}-2-oxoethyl)-2-(1S,4S)-2-oxa-5-azabicyclo[2.2.1]hept-5-yl-8-trifluoromethyl-6,7,8,9-tetrahydropyrimido[1,2-a]pyrimidin-4-one] | > 10 | > 200
3 | O=C(CN1c2nc(N3C[C@@H]4C[C@H]3CO4)cc(=O)n2CC[C@H]1C(F)(F)F)c1ccc(NCCO)nc1 [Compound 14, (8S)-9-{2-[6-(2-hydroxyethylamino)pyrid-3-yl]-2-oxoethyl}-2-(1S,4S)-2-oxa-5-azabicyclo[2.2.1]hept-5-yl-8-trifluoromethyl-6,7,8,9-tetrahydropyrimido[1,2-a]pyrimidin-4-one] | > 10 | 70
4 | CNc1ccc(C(=O)CN2c3nc(N4C[C@@H]5C[C@H]4CO5)cc(=O)n3C[C@@]2(C)C(F)(F)F)cn1 [Compound 9, 2-methyl-1-[2-(6-methylaminopyrid-3-yl)-2-oxoethyl]-7-(1S,4S)-2-oxa-5-azabicyclo[2.2.1]hept-5-yl-2-((S)-trifluoromethyl)-2,3-dihydro-1H-imidazo[1,2-a]pyrimidin-5-one] | > 10 | > 200
5 | Cc1nocc1C(=O)CN1c2nc(N3C[C@@H]4C[C@H]3CO4)cc(=O)n2CC[C@H]1C(F)(F)F [Compound 46, (8S)-9-[2-(3-Methylisoxazol-4-yl)-2-oxoethyl]-2-(1S,4S)-2-oxa-5-azabicyclo[2.2.1]hept-5-yl-8-trifluoromethyl-6,7,8,9-tetrahydropyrimido[1,2-a]pyrimidin-4-one] | > 10 | 398

Further lines, results first:

Row | IC50 [1] [µM] | IC50 [2] [nM] | SMILES
6 | > 10 | 117 | Cn1cc(CN2c3nc(N4C[C@@H]5C[C@H]4CO5)cc(=O)n3CC[C@H]2C(F)(F)F)c(C(F)(F)F)n1 [Compound 116, (8S)-9-(1-Methyl-3-trifluoromethyl-1H-pyrazol-4-ylmethyl)-2-(1S,4S)-2-oxa-5-azabicyclo[2.2.1]hept-5-yl-8-trifluoromethyl-6,7,8,9-tetrahydropyrimido[1,2-a]pyrimidin-4-one]
7 | 0.84 | 75 | O=c1cc(N2C[C@@H]3C[C@H]2CO3)nc2n1CC[C@@H](C(F)(F)F)N2CC(O)(C1CC1)C1CC1 [Compound 103, (8S)-9-(2,2-Dicyclopropyl-2-hydroxyethyl)-2-(1S,4S)-2-oxa-5-azabicyclo[2.2.1]hept-5-yl-8-trifluoromethyl-6,7,8,9-tetrahydropyrimido[1,2-a]pyrimidin-4-one]
8 | > 10 | 96 | Cn1nccc1C(=O)CN1c2nc(N3C[C@@H]4C[C@H]3CO4)cc(=O)n2CC[C@H]1C(F)(F)F [Compound 69, (8S)-9-[2-(2-methyl-2H-pyrazol-3-yl)-2-oxoethyl]-2-(1S,4S)-2-oxa-5-azabicyclo[2.2.1]hept-5-yl-8-trifluoromethyl-6,7,8,9-tetrahydropyrimido[1,2-a]pyrimidin-4-one]
9 | 8.5 | 170 | O=c1cc(N2C[C@@H]3C[C@H]2CO3)nc2n1CC[C@@H](C(F)(F)F)N2CC(O)(C(F)(F)F)C(F)(F)F [Compound 96, (8S)-2-(1S,4S)-2-oxa-5-azabicyclo[2.2.1]hept-5-yl-9-(3,3,3-trifluoro-2-hydroxy-2-trifluoromethylpropyl)-8-trifluoromethyl-6,7,8,9-tetrahydropyrimido[1,2-a]pyrimidin-4-one]
10 | 0.45 | 10 | O=c1cc(N2C[C@@H]3C[C@H]2CO3)nc2n1CC[C@@H](C(F)(F)F)N2CC1(O)CCCC1 [Compound 101, (8S)-9-(1-Hydroxycyclopentylmethyl)-2-(1S,4S)-2-oxa-5-azabicyclo[2.2.1]hept-5-yl-8-trifluoromethyl-6,7,8,9-tetrahydropyrimido[1,2-a]pyrimidin-4-one]
11 | 0.45 | 4 | O=c1cc(N2C[C@@H]3C[C@H]2CO3)nc2n1CC[C@@H](C(F)(F)F)N2CCC1CCOCC1 [Compound 92, (8S)-2-(1S,4S)-2-oxa-5-azabicyclo[2.2.1]hept-5-yl-9-[2-(tetrahydropyran-4-yl)ethyl]-8-trifluoromethyl-6,7,8,9-tetrahydropyrimido[1,2-a]pyrimidin-4-one]
12 | > 10 | 100 | Cc1nscc1C(=O)CN1c2nc(N3C[C@@H]4C[C@H]3CO4)cc(=O)n2CC[C@H]1C(F)(F)F [Compound 107, (8S)-9-[2-(3-Methylisothiazol-4-yl)-2-oxoethyl]-2-(1S,4S)-2-oxa-5-azabicyclo[2.2.1]hept-5-yl-8-trifluoromethyl-6,7,8,9-tetrahydropyrimido[1,2-a]pyrimidin-4-one]
13 | 0.13 | 9 | CC(=O)N1CCC(CN2c3nc(N4C[C@@H]5C[C@H]4CO5)cc(=O)n3CC[C@H]2C(F)(F)F)CC1 [Compound 94, (8S)-9-(1-Acetylpiperid-4-ylmethyl)-2-(1S,4S)-2-oxa-5-azabicyclo[2.2.1]hept-5-yl-8-trifluoromethyl-6,7,8,9-tetrahydropyrimido[1,2-a]pyrimidin-4-one]
